Values belong to the molecule of their own block, whether it stands above or below them.
How the values were obtained:
Assay type in all cases: cell-based
GPR40 [1] = target: T1, GPR40 (Homo sapiens, UniProt O14842); test: SRE-luciferase (Gq) reporter assay, CHO cells
T1 construct: gene FFAR1; plasmid of untold source and species, transiently cotransfected with SRE-Luc or CRE-Luc in CHO-K1 cells

GPR40 [2] = target: T1, GPR40; test: SRE-luciferase (Gq) reporter assay, CHO cells; settings: 24 h, 37 °C
GPR40 [3] = target: T1, GPR40; test: SRE-luciferase (Gq) reporter assay, CHO cells, dose-response curve; settings: agonist

T1 sequence (O14842 whole entry): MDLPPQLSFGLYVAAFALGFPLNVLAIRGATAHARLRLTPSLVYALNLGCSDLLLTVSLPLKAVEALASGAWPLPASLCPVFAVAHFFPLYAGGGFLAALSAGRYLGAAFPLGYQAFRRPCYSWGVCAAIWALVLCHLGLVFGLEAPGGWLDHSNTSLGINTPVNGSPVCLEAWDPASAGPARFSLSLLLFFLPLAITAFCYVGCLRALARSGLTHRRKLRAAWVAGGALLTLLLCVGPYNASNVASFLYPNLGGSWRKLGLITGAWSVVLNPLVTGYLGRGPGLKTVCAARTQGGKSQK

EC50 (GPR40 [1]): 2910 ± 320 nM
Compound: CC(/C=C/C=C(\C)C(=O)O)=C\C=C\C=C(C)\C=C\C=C(/C)C(=O)O [crocetin]

Emax (GPR40 [2]): 6.00%
Compound: CC(/C=C/C=C(\C)C(=O)O[C@@H]1O[C@H](CO[C@@H]2O[C@H](CO)[C@@H](O)[C@H](O)[C@H]2O)[C@@H](O)[C@H](O)[C@H]1O)=C\C=C\C=C(C)\C=C\C=C(/C)C(=O)O[C@@H]1O[C@H](CO[C@@H]2O[C@H](CO)[C@@H](O)[C@H](O)[C@H]2O)[C@@H](O)[C@H](O)[C@H]1O [crocin]

Compound: CCCCC/C=C\C/C=C\CCCCCCCC(=O)O [linoleic acid]
SRE-luciferase (Gq) reporter assay, CHO cells, dose-response curve (GPR40 [3]): increasing crocetin concentrations on dose−response curves of LA
